Assay [1] addresses Somatostatin receptor type 4 (Homo sapiens, UniProt P31391). The assay is described as follows: Tested for ability to bind to 20 uM thick cryostat sections of a membrane pellet of cells transfected with human cloned somatostatin (sst) receptor subtype 4.
Assay [2] addresses Somatostatin receptor type 5 (Homo sapiens, UniProt P35346). Kind of assay: Tested for ability to bind to 20 uM thick cryostat sections of a membrane pellet of cells transfected with human cloned somatostatin (sst) receptor subtype 5.
Assay [3] concerns the target Somatostatin receptor type 1 (Homo sapiens, UniProt P30872). The assay is described as follows: Tested for ability to bind to 20 uM thick cryostat sections of a membrane pellet of cells transfected with human cloned somatostatin (sst) receptor subtype 1.
Assay [4] has as its target Somatostatin receptor type 3 (Homo sapiens, UniProt P32745). Kind of assay: Tested for ability to bind to 20 uM thick cryostat sections of a membrane pellet of cells transfected with human cloned somatostatin (sst) receptor subtype 3.
Assay [5] has as its target Somatostatin receptor type 2 (Homo sapiens, UniProt P30874). Kind of assay: Tested for ability to bind to 20 uM thick cryostat sections of a membrane pellet of cells transfected with human cloned somatostatin (sst) receptor subtype 2.

Molecules are shown by their SMILES. Numbered stars: 1 amine (or outer) side, 2 acyl side, 3 side chain; on linkers, the order of the positions; unused ones are H or OH. Bridge positions count the residues as written; N and C are the ends. Square brackets hold non-standard residues; d marks the D form. Peptide text beside a SMILES is read from it. Phe(4-CH2NHiPr) = CC(C)NCc1ccc(C[C@H](N)C(=O)O)cc1; X1 = CC(C)CNCc1ccc(C[C@H](N[*:1])C(=O)[*:2])cc1; Phe(4-CH2NH2) = NCc1ccc(C[C@H](N)C(=O)O)cc1; d2Nal = N[C@H](Cc1ccc2ccccc2c1)C(=O)O

Somatostatin receptor type 3, sequence (P32745 whole entry): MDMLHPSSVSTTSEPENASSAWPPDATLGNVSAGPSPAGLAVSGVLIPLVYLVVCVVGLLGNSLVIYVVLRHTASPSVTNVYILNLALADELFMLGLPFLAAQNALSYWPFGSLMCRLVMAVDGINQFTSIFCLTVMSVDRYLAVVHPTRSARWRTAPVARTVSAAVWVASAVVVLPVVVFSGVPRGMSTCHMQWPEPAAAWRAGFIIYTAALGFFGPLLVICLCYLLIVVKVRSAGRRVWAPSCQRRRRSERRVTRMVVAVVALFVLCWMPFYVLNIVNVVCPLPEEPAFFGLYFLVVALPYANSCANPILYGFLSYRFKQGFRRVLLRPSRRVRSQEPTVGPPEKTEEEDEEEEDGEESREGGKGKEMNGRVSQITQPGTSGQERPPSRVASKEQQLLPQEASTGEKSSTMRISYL
Somatostatin receptor type 5, sequence (P35346 whole entry): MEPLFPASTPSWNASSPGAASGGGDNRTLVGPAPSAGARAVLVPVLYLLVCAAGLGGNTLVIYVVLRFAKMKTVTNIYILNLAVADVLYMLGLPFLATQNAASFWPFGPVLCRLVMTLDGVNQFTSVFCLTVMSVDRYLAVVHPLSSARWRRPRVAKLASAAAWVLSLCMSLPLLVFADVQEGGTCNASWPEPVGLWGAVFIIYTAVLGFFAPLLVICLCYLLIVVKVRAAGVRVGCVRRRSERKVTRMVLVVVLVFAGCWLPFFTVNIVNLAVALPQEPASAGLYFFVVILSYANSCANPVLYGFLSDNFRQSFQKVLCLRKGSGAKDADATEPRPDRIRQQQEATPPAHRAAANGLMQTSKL
Somatostatin receptor type 4, sequence (P31391 whole entry): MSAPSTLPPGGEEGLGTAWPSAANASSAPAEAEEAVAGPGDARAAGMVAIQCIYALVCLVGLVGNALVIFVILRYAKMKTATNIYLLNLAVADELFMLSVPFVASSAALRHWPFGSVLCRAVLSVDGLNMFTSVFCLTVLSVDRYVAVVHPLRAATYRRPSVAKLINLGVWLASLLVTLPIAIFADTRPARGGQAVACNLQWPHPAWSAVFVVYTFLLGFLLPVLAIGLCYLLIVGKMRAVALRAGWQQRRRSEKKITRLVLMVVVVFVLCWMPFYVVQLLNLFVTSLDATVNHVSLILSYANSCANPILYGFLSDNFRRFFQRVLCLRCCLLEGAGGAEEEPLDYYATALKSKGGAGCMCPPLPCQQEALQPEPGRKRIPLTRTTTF
Somatostatin receptor type 2, sequence (P30874 whole entry): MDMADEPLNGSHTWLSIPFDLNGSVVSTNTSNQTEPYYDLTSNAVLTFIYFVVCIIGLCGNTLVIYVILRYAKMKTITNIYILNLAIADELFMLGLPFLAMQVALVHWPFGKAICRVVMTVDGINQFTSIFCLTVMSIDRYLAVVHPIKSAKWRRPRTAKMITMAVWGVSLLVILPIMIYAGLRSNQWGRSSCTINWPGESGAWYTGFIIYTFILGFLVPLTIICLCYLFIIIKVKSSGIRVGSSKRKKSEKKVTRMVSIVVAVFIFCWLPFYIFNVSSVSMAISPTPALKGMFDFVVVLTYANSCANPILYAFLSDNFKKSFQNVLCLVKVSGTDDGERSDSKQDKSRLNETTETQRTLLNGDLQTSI
Somatostatin receptor type 1, sequence (P30872 whole entry): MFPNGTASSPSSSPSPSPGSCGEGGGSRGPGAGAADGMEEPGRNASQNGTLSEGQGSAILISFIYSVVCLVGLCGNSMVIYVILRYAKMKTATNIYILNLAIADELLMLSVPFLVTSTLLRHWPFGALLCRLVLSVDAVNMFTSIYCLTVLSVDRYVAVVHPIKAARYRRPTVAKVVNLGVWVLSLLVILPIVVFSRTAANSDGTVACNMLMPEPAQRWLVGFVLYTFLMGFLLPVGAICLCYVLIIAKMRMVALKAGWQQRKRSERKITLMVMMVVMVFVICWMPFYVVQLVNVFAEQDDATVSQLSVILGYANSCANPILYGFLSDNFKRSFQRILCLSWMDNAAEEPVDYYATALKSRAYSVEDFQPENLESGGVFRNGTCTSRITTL

For the compound `C[C@@H](O)[C@@H]1NC(=O)[C@H](Cc2ccccc2)NC(=O)[C@H]([C@@H](C)O)NC(=O)[C@H](Cc2ccc(CN)cc2)NC(=O)[C@@H](Cc2ccc3ccccc3c2)NC(=O)[C@H](Cc2ccccc2)NC(=O)[C@H](Cc2ccccc2)NC(=O)[C@H](CCCCN)NC(=O)[C@@H](N)CSSC[C@@H](C(=O)O)NC(=O)[C@H](CO)NC1=O`, the IC50 (as a rule, the concentration at which inhibition is half-maximal) in assay [1] was more than 1 µM; in assay [2] it was 0.385 µM; in assay [3] it was 0.347 µM; in assay [4] it was 0.081 µM; in assay [5], 0.343 µM.

As for `C[C@H](N)C(=O)NCC(=O)N[C@H]1CSSC[C@@H](C(=O)O)NC(=O)[C@H](CO)NC(=O)[C@H]([C@@H](C)O)NC(=O)[C@H](Cc2ccccc2)NC(=O)[C@H]([C@@H](C)O)NC(=O)[C@H](CCCCN)NC(=O)[C@@H](Cc2c[nH]c3ccccc23)NC(=O)[C@H](Cc2ccccc2)NC(=O)[C@H](Cc2ccccc2)NC(=O)[C@H](CCCCN)NC1=O` (H-AGCKFF[dW]KTFTSC-OH; disulfide 3-13), the IC50 came out at 0.0017 µM in assay [1]; 0.005 µM in assay [2]; 0.001 µM in assay [3]; 0.0034 µM in assay [4]; 0.0425 µM in assay [5].

For `CC(C)NCc1ccc(C[C@@H]2NC(=O)[C@@H](Cc3ccc4ccccc4c3)NC(=O)[C@H](Cc3ccccc3)NC(=O)[C@H](Cc3ccccc3)NC(=O)[C@H](CCCCN)NC(=O)[C@@H](N)CSSC[C@@H](C(=O)O)NC(=O)[C@H](CO)NC(=O)[C@H]([C@@H](C)O)NC(=O)[C@H](Cc3ccccc3)NC(=O)[C@H]([C@@H](C)O)NC2=O)cc1` (H-CKFF[d2Nal][Phe(4-CH2NHiPr)]TFTSC-OH; disulfide 1-11), the IC50 in assay [1] is more than 1 µM; in assay [2] it was more than 10 µM; in assay [3], 0.103 µM; in assay [4], more than 1 µM; in assay [5], more than 1 µM.

For the compound `C[C@@H](O)[C@@H]1NC(=O)[C@H](Cc2ccccc2)NC(=O)[C@H]([C@@H](C)O)NC(=O)[C@H](Cc2ccc(CN)cc2)NC(=O)[C@@H](Cc2c[nH]c3ccccc23)NC(=O)[C@H](Cc2ccccc2)NC(=O)[C@H](Cc2ccccc2)NC(=O)[C@H](CCCCN)NC(=O)[C@@H](N)CSSC[C@@H](C(=O)O)NC(=O)[C@H](CO)NC1=O` (H-CKFF[dW][Phe(4-CH2NH2)]TFTSC-OH; disulfide 1-11), the IC50 worked out at 0.267 µM in assay [1]; 0.19 µM in assay [2]; 0.309 µM in assay [3]; 0.273 µM in assay [4]; 0.213 µM in assay [5].

For `CC(C)NCc1ccc(C[C@@H]2NC(=O)[C@@H](Cc3c[nH]c4ccccc34)NC(=O)[C@H](Cc3ccccc3)NC(=O)[C@H](Cc3ccccc3)NC(=O)[C@H](CCCCN)NC(=O)[C@@H](N)CSSC[C@@H](C(=O)O)NC(=O)[C@@H](CO)NC(=O)[C@H]([C@@H](C)O)NC(=O)[C@H](Cc3ccccc3)NC(=O)[C@H]([C@@H](C)O)NC2=O)cc1` (H-CKFF[dW][Phe(4-CH2NHiPr)]TFT[dS]C-OH; disulfide 1-11), the IC50 in assay [1] was more than 1 µM; in assay [2], more than 1 µM; in assay [3], 0.187 µM; in assay [4] it was more than 1 µM; in assay [5], more than 10 µM.

Take `CC(C)CNCc1ccc(C[C@@H]2NC(=O)[C@@H](Cc3c[nH]c4ccccc34)NC(=O)[C@H](Cc3ccccc3)NC(=O)[C@H](Cc3ccccc3)NC(=O)[C@H](CCCCN)NC(=O)[C@@H](N)CSSC[C@@H](C(=O)O)NC(=O)[C@H](CO)NC(=O)[C@H]([C@@H](C)O)NC(=O)[C@H](Cc3ccccc3)NC(=O)[C@H]([C@@H](C)O)NC2=O)cc1` (H-CKFF[dW][X1]TFTSC-OH; disulfide 1-11): the IC50 is more than 1 µM in assay [1]; more than 1 µM in assay [2]; 0.13 µM in assay [3]; 0.381 µM in assay [4]; more than 1 µM in assay [5].

Values taken from ChEMBL document CHEMBL1134520, “Potent somatostatin undecapeptide agonists selective for somatostatin receptor 1 (sst1)” (J Med Chem, 2001).
